The record followed here is patent US20250340552A1, “COMPOUNDS, COMPOSITIONS AND METHODS OF TREATING DISORDERS” (HOTSPOT THERAPEUTICS, INC., priority 2022, published 2025).

Read-outs that look alike come from different tables or passages of the source.

This assay deals with T1, Cbl-B (Homo sapiens, UniProt Q13191).
T1 construct: MSD-Based Assay for Degradation of Cbl-B in THP-1 Cells; endogenous in cells; host or cells: THP-1 (title) / Jurkat (protocol text)
As to the kind of experiment: MSD-based assay for degradation of Cbl-B in THP-1 cells. The class given is cell-based. In outline:
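THP-1 cells were treated with compound for 24 h at 37 °C. Cbl-B in lysates was quantified by MSD sandwich immunoassay, with anti-Cbl-B capture antibody at 1 ug/mL and SULFO-TAG anti-rabbit detection. Maximal degradation (Dmax) was binned as A >70%, B 50–70%, C 30–50%, D <30%.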

Where [1] appears, read: Cbl-B degradation, Jurkat cells seeded (heading: THP-1 cells), 24 hours incubation, MSD readout.
The mark [2] stands for this setting: Cbl-B degradation, Jurkat cells seeded (heading: THP-1 cells), 24 hours incubation, MSD readout, read-out: Dmax.

T1 sequence (Q13191 whole entry): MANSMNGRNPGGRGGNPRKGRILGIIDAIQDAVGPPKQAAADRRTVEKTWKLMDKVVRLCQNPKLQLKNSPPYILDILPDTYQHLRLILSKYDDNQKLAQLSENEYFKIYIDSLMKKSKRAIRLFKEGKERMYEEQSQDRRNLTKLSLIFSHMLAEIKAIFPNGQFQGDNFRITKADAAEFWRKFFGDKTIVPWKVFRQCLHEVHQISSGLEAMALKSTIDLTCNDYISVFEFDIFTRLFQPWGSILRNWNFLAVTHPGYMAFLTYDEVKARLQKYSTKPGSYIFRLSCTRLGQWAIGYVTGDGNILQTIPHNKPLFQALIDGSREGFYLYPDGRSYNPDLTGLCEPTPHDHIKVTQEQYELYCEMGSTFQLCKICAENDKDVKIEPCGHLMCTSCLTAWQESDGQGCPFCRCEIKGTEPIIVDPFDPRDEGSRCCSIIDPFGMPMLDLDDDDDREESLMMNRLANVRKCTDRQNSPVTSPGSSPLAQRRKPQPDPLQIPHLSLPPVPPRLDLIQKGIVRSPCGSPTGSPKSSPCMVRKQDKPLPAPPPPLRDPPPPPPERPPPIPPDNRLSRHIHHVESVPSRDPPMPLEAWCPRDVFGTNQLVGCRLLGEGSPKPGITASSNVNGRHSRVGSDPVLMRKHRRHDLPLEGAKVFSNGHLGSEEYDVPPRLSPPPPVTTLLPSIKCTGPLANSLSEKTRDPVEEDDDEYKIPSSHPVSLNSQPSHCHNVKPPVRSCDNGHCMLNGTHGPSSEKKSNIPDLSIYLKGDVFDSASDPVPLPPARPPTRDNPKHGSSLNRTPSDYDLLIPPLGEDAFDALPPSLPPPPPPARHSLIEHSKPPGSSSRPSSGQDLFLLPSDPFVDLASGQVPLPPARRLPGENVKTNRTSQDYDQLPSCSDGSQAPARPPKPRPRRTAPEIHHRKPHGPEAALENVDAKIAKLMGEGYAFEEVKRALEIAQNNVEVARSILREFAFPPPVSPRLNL

`Cn1cnnc1CC1(c2cccc(-n3cc4c(C(F)(F)F)cc(CN5CCC(OCc6ccc(C7CCN(c8ccc9c(c8)CN([C@H]8CCC(=O)NC8=O)C9=O)CC7)cc6)CC5)cn4c3=O)c2)COC1` (single isomer, unassigned) [Compound 206] came in with a half-maximal degradation concentration (DC50) under setting [1] of 0.03 to 0.3 µM. In addition, the Dmax under setting [2] was in the range of 50 to 70%.
Under setting [1], `Cn1cnnc1[C@@H](c1cccc(-n2cc3c(C(F)(F)F)cc(CN4CCC(OCCOCc5ccc(CC6CCN(c7ccc8c(c7)CN([C@@H]7CCC(=O)NC7=O)C8=O)CC6)cc5)CC4)cn3c2=O)c1)C1CCC1` (single isomer, unassigned) [Compound 173] had a DC50 of 1 to 10 µM. For the same compound, for the setting “THP-1”, the Dmax is 30 to 50%.
With `Cn1cnnc1[C@@H](c1cccc(-n2cc3c(C(F)(F)F)cc(CN4CCC(CC(=O)N5CCC(c6ccc(-c7ccc8c(c7)CN([C@@H]7CCC(=O)NC7=O)C8=O)cc6)CC5)CC4)cn3c2=O)c1)C1CCC1` [Compound 181], the DC50 under setting [1] is 0.3 to 1 µM. In addition, the greatest degradation seen (Dmax) (THP-1) is 30 to 50%.
Regarding `Cn1cnnc1[C@@H](c1cccc(-n2cc3c(C(F)(F)F)cc(CN4CCN(CC(=O)N5CCC(CN6CCN(c7ccc8c(c7)CN([C@H]7CCC(=O)NC7=O)C8=O)CC6)CC5)CC4)cn3c2=O)c1)C1CCC1` (single isomer, unassigned) [Compound 122], under setting [1], the DC50 is below 0.03 µM. Moreover, the Dmax under setting [2] was above 70%.
Turning to `Cn1cnnc1[C@@H](c1cccc(-n2cc3c(C(F)(F)F)cc(CN4CCC(CC(=O)N5CCC(C6CCN(c7ccc8c(c7)CN([C@H]7CCC(=O)NC7=O)C8=O)CC6)CC5)CC4)cn3c2=O)c1)C1CCC1` (single isomer, unassigned) [Compound 178], the half-maximal degradation concentration (DC50) under setting [1] was below 0.03 µM. Also, the Dmax under setting [2] was above 70%.
For `Cn1cnnc1[C@@H](c1cccc(-n2cc3c(C(F)(F)F)cc(CN4CCC(C5CCN(C(=O)c6ccc(N7CCN(c8ccc9c(c8)CN([C@@H]8CCC(=O)NC8=O)C9=O)CC7)cc6)CC5)CC4)cn3c2=O)c1)C1CCC1` (single isomer, unassigned) [Compound 161] the same measures were 0.3 to 1 µM and below 30%.
On to `CN(CCC1CCN(Cc2cc(C(F)(F)F)c3cn(-c4cccc([C@H](c5nncn5C)C5CCC5)c4)c(=O)n3c2)CC1)C(=O)c1ccc(N2CCN(c3ccc4c(c3)CN([C@@H]3CCC(=O)NC3=O)C4=O)CC2)cc1` (single isomer, unassigned) [Compound 185], for which the DC50 under setting [1] is 0.03 to 0.3 µM. For the same compound, under setting [2], the greatest degradation seen (Dmax) was in the range of 50 to 70%.
Compound `Cn1cnnc1[C@@H](c1cccc(-n2cc3c(C(F)(F)F)cc(CN4CCN(C(=O)Cc5ccc(C6CCN(c7ccc8c(c7)CN([C@@H]7CCC(=O)NC7=O)C8=O)CC6)cc5)CC4)cn3c2=O)c1)C1CCC1` (single isomer, unassigned) [Compound 201] displayed a DC50 under setting [1] of 0.03 to 0.3 µM. Moreover, under setting [2], the maximal degradation (Dmax) lay within 30 to 50%.
As for `Cn1cnnc1CC1(c2cccc(-n3cc4c(C(F)(F)F)cc(CN5CCC(CC(=O)N6CCC(CN7CCN(c8ccc9c(c8)CN([C@H]8CCC(=O)NC8=O)C9=O)CC7)CC6)CC5)cn4c3=O)c2)COC1` [Compound 256], the DC50 under setting [1] was below 0.03 µM. Further, the Dmax (THP-1) is above 70%.
In the case of `Cn1cnnc1CC1(c2cccc(-n3cc4c(C(F)(F)F)cc(-c5nccn5CCOCCN5CCC(CN6CCN(c7ccc8c(c7)CN([C@@H]7CCC(=O)NC7=O)C8=O)CC6)CC5)cn4c3=O)c2)COC1` [Compound 99], the half-maximal degradation concentration (DC50) under setting [1] is above 10 µM. Besides, under setting [2], the greatest degradation seen (Dmax) was below 30%.
As for `Cn1cnnc1[C@@H](c1cccc(-n2cc3c(C(F)(F)F)cc(CN4CCN(CCN5CCC(CN6CCN(c7ccc8c(c7)CN([C@@H]7CCC(=O)NC7=O)C8=O)CC6)CC5)CC4)cn3c2=O)c1)C1CCC1` [Compound 63], under setting [1], the 50% degradation concentration (DC50) lay in the range of 0.3 to 1 µM. Also, under setting [2], the Dmax was in the range of 30 to 50%.
In turn, `Cn1cnnc1[C@@H](c1cccc(-n2cc3c(C(F)(F)F)cc(CN4CCC(OCCOCc5ccc(COCCNc6cccc7c6C(=O)N(C6CCC(=O)NC6=O)C7=O)cc5)CC4)cn3c2=O)c1)C1CCC1` (single isomer, unassigned) [Compound 5] displayed a 50% degradation concentration (DC50) under setting [1] above 10 µM. The Dmax under setting [2] was below 30%.
`CO[C@H]1C[C@@](c2cccc(-n3cc4c(C(F)(F)F)cc(CN5CCC(CN(C)C(=O)c6ccc(N7CCN(c8ccc9c(c8)CN([C@H]8CCC(=O)NC8=O)C9=O)CC7)cc6)CC5)cn4c3=O)c2)(c2nncn2C)C1` [Compound 169] yielded a half-maximal degradation concentration (DC50) under setting [1] of 0.03 to 0.3 µM. Also, the Dmax under setting [2] lay within 30 to 50%.
With `Cn1cnnc1[C@@H](c1cccc(-n2cc3c(C(F)(F)F)cc(CN4CCC[C@H](OCCN5CCC(CN6CCN(c7ccc8c(c7)CN([C@H]7CCC(=O)NC7=O)C8=O)CC6)CC5)C4)cn3c2=O)c1)C1CCC1` [Compound 56], the 50% degradation concentration (DC50) under setting [1] lay within 0.03 to 0.3 µM. Moreover, under setting [2], the Dmax is above 70%.
Turning to `Cn1cnnc1CC1(c2cccc(-n3cc4c(C(F)(F)F)cc(CN5CCC(COCc6ccc(CN7CCN(c8ccc9c(c8)CN([C@@H]8CCC(=O)NC8=O)C9=O)CC7)cc6)CC5)cn4c3=O)c2)COC1` [Compound 215], the DC50 under setting [1] lay within 1 to 10 µM. Besides, under setting [2], the Dmax was below 30%.
For the compound `Cn1cnnc1[C@@H](c1cccc(-n2cc3c(C(F)(F)F)cc(CC4CCC[C@@H](OCCOCc5ccc(COCCNc6cccc7c6C(=O)N(C6CCC(=O)NC6=O)C7=O)cc5)C4)cn3c2=O)c1)C1CCC1` (stereo partly drawn) [Compound 20], under setting [1], the DC50 lay in the range of 0.3 to 1 µM. Also, the Dmax under setting [2] lay within 50 to 70%.
The corresponding values for `CN(CC1CCN(Cc2cc(C(F)(F)F)c3cn(-c4cccc(C5(Cc6nncn6C)COC5)c4)c(=O)n3c2)CC1)C(=O)c1ccc(C2CCN(c3ccc4c(c3)CN([C@H]3CCC(=O)NC3=O)C4=O)CC2)cc1` [Compound 242] are below 0.03 µM and above 70%.
For the compound `Cn1cnnc1[C@@H](c1cccc(-n2cc3c(C(F)(F)F)cc(CN4CCN(CCN5CCC(CN6CCN(c7ccc8c(c7)CN([C@H]7CCC(=O)NC7=O)C8=O)CC6)CC5)CC4)cn3c2=O)c1)C1CCC1` (single isomer, unassigned) [Compound 64], the 50% degradation concentration (DC50) under setting [1] was below 0.03 µM. Besides, the maximal degradation (Dmax) under setting [2] is above 70%.
For `CN(CCC(=O)N1CCC(CN2CCN(c3ccc4c(c3)CN([C@@H]3CCC(=O)NC3=O)C4=O)CC2)CC1)Cc1cc(C(F)(F)F)c2cn(-c3cccc([C@H](c4nncn4C)C4CCC4)c3)c(=O)n2c1` (single isomer, unassigned) [Compound 119], the 50% degradation concentration (DC50) under setting [1] is above 10 µM. For the same compound, under setting [2], the Dmax is below 30%.
`Cn1cnnc1[C@@H](c1cccc(-n2cc3c(C(F)(F)F)cc(CN4CCC(OCc5ccc(CC6CCN(c7ccc8c(c7)CN([C@H]7CCC(=O)NC7=O)C8=O)CC6)cc5)CC4)cn3c2=O)c1)C1CCC1` (single isomer, unassigned) [Compound 218] yielded a DC50 under setting [1] below 0.03 µM. The greatest degradation seen (Dmax) under setting [2] is above 70%.
With `CN(CCOC1CCN(Cc2cc(C(F)(F)F)c3cn(-c4cccc([C@H](c5nncn5C)C5CCC5)c4)c(=O)n3c2)CC1)C(=O)c1ccc(N2CCN(c3cccc4c3C(=O)N(C3CCC(=O)NC3=O)C4=O)CC2)cc1` (stereo partly drawn) [Compound 33], under setting [1], the DC50 was above 10 µM. Also, under setting [2], the Dmax is below 30%.
As for `Cn1cnnc1[C@@H](c1cccc(-n2cc3c(C(F)(F)F)cc(CN4CCC(CCN5CCC(CN6CCN(c7ccc8c(c7)CN([C@@H]7CCC(=O)NC7=O)C8=O)CC6)CC5)CC4)cn3c2=O)c1)C1CCC1` (single isomer, unassigned) [Compound 109], the 50% degradation concentration (DC50) under setting [1] is 0.03 to 0.3 µM.
In turn, `Cn1cnnc1CC1(c2cccc(-n3cc4c(C(F)(F)F)cc(CN5CCC[C@@H](OCCN6CCC(CN7CCN(c8ccc9c(c8)CN([C@H]8CCC(=O)NC8=O)C9=O)CC7)CC6)C5)cn4c3=O)c2)COC1` (single isomer, unassigned) [Compound 50] gave a half-maximal degradation concentration (DC50) under setting [1] of 0.03 to 0.3 µM. Moreover, under setting [2], the Dmax was above 70%.
